Series [1] deals with Sult1A1 (sulfotransferase family 1A member 1) (Homo sapiens, UniProt P50225). As to the kind of experiment: R&D SYSTEMS sulfotransferase assay, Sult1A1 modification of 4EP to 4EPS. It is filed as biochemical. Conditions: in vitro, FIG. 11C. On the procedure: Using R&D SYSTEMS Universal Sulfotransferase Assay Kit™, sulfation of 4-ethylphenol (4EP) or para-cresol (PC) was determined colorimetrically (FIG. 11A). Samples from the assay were pooled and analyzed by liquid chromotography mass spectrometry (LCMS) for the confirmation that 4EPS and PCS are present (FIG. 11B).
An R&D SYSTEMS assay was used to determine whether quercetin and curcumin can inhibit Sult1A1 (sulfotransferase family 1A member 1, an enzyme that catalyzes sulfate conjugation) modification of 4EP to 4EPS (FIG. 11C). […] Accordingly, it is contemplated that quercetin and curcumin in accordance with some embodiments herein can inhibit the production of 4EPS in a subject in need thereof.

A further series concerns wild-type mice. As to the kind of experiment: Open field exploration and pre-pulse inhibition assays, wild-type mice injected with 4EPS (Example 1). It is filed as in vivo, mouse. The settings on record: 30 mg/kg 4EPS potassium salt i.p. daily from 3 to 6 weeks of age vs saline, n=10/group. On the procedure:
To measure effects of 4EPS on wild-type mice, the wild-type mice were injected intraperitoneally (i.p.) with saline or 30 mg/kg 4EPS potassium salt daily from 3 to 6 weeks of age. Anxiety-like behavior based on center duration (See FIG. 1B) and locomotor behavior (See […]) were measured in the open field exploration assay. n=10/group. Furthermore, the potentiated startle reflex was measured in the pre-pulse inhibition (PPI) assay, and measurements were taken of startle (Vmax) (FIG. 1C) and PPI % (FIG. 1D). n=10/group.

In series [2] the test system is Wildtype mice. Kind of series: Elevated plus maze, mice injected with 4EPS. The settings on record: 30 mg/kg 4EPS potassium salt i.p. daily, 3 to 6 weeks of age, vs saline. It is filed as in vivo, mouse. On the procedure:
(§1) Wildtype mice were injected intraperitoneally (i.p.) with saline or 30 mg/kg 4EPS potassium salt daily from 3 to 6 weeks of age and tested for anxiety in the elevated plus maze (FIG. 4A-C), light dark box (FIG. 4D-F), and open field arena (FIG. 4G-I) assays.

The test system of series [3] is Wildtype mice. Kind of series: Light dark box, mice injected with 4EPS. It is filed as in vivo, mouse. Conditions: 30 mg/kg 4EPS potassium salt i.p. daily, 3 to 6 weeks of age, vs saline. On the procedure: as §1
For series [4], the system named is Wildtype mice. Kind of series: Open field arena, mice injected with 4EPS. It is filed as in vivo, mouse. Conditions: 30 mg/kg 4EPS potassium salt i.p. daily, 3 to 6 weeks of age, vs saline. On the procedure:
as §1

Series [5] can be described thus: 4EP to 4EPS conversion by cytosolic fractions from tissues of colonized mice. The settings on record: colon and liver cytosolic fractions of colonized mice, FIG. 11E. It is filed as in vitro ADME, mouse. On the procedure:
4EP to 4EPS conversion was measured by cytosolic fractions from various tissues of colonized mice (FIG. 11E).

Molecules are shown by their SMILES.

Sult1A1 (sulfotransferase family 1A member 1), sequence (P50225 whole entry, species assumed): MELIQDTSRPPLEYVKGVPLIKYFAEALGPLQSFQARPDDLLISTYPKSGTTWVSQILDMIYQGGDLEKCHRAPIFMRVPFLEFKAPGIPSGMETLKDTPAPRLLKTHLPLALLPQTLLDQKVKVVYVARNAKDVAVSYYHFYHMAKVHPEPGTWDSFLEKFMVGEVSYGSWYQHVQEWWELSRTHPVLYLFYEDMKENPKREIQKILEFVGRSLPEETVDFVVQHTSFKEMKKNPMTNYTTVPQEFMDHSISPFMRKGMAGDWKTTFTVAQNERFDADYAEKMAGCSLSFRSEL

As to `COc1cc(/C=C/C(=O)CC(=O)/C=C/c2ccc(O)c(OC)c2)ccc1O` [curcumin], in series [1], the “inhibition of sulfation of 4EP” value is recorded as “inhibit”.

As for `CCc1ccc(OS(=O)(=O)[O-])cc1.[K+]` [4EPS, 4-ethylphenyl sulfate], in the series on wild-type mice, the “anxiety behaviors (open field center duration, startle, PPI)” value was “significantly increased anxiety behaviors”. Also, in the series on Wildtype mice [2], the “duration in the open (elevated plus maze)” value was “decreased” and the “total terminus duration (elevated plus maze)” value was “decreased”. Further, in the series with Wildtype mice [3], the “frequency in the light (light dark box)” value was “decreased” and the “total duration in the light (light dark box)” value is given as “decreased”. Moreover, in the series with Wildtype mice [4], the “distance moved (open field arena)” value is on record as “comparable to saline-injected mice” and the “total duration in center (open field arena)” value is listed as “decreased”.

In the case of `CCc1ccc(O)cc1` [4EP, 4-ethylphenol], the “conversion of 4EP to 4EPS” value in series [5] is “Substantial conversion”.

For `O=c1c(O)c(-c2ccc(O)c(O)c2)oc2cc(O)cc(O)c12` [quercetin], the “inhibition of sulfation of 4EP” value in series [1] is recorded as “inhibit”.

These data come from patent publication US11224624B2, “Modulation of microbial synthesis of 4-etylphenol and 4-ethylphenyl sulfate in behavior and disease” (California Institute of Technology, priority 2017, dated 2022).
